Experimental data from article PMC5063400, “A Natural Mutation in Helix 5 of the Ligand Binding Domain of Glucocorticoid Receptor Enhances Receptor-Ligand Interaction” (PLoS ONE, 2016).
Positions count from the first letter of the chain named. “Also recorded” adds a separate entry of the source. Read-outs that look alike come from different tables or passages of the source.

What was measured:
[1] = target: T1, porcine GR Val610 (mutant) (Sus scrofa, UniProt Q9N1U3); test: Transactivation assay (MMTV-luciferase reporter) in Cos-7 cells, mutant Val610 GR
T1 sequence (Q9N1U3 1-782): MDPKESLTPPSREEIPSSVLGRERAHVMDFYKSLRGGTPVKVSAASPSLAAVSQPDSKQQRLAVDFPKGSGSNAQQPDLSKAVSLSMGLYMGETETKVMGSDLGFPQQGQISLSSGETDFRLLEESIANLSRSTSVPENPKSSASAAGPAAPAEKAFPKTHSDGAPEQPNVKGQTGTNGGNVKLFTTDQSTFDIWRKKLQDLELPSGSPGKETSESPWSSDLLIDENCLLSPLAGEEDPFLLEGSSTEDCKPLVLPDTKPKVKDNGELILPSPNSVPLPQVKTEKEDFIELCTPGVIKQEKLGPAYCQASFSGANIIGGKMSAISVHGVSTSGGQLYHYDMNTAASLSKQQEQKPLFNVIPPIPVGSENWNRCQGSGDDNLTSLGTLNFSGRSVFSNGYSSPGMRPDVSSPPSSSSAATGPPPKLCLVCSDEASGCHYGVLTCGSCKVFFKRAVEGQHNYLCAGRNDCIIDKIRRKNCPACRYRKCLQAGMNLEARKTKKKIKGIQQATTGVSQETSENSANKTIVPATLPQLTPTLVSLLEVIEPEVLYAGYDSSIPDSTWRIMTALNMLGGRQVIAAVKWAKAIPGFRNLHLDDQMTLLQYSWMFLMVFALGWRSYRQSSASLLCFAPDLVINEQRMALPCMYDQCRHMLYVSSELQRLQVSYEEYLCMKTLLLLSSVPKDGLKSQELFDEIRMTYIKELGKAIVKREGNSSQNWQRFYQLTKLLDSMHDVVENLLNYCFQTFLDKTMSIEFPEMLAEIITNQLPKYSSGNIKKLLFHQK
Protocol: Porcine GR expression plasmids (pCMV-GRA610 or pCMV-GRV610) harboring the SNP NR3C1 c.1829C>T (causing the Ala610Val substitution) were used for a transactivation assay in Cos-7 cells as previously described [13]. In brief, monkey kidney Cos-7 cells were seeded in 96-well plates at a density of 2.5×10^4 cells/well in DMEM (Invitrogen, Karlsruhe, Germany) with 10% FCS. Twenty-four hours after seeding, cells were co-transfected with 200 ng of expression vector, 100 ng of pGL4.36 reporter (Promega, Mannheim, Germany) and 2 ng of pRL-SV40 plasmid (Promega) according to the Lipofectamine 2000 protocol (Invitrogen). The reporter plasmid pGL4.36 expresses firefly luciferase under control of the glucocorticoid-inducible MMTV (Murine Mammary Tumor Virus Long Terminal repeat) promoter while the pRL-SV40 vector constitutively expresses the Renilla luciferase and was used to normalize for transfection efficiency. […] Therefore, cell media was replaced by DMEM supplemented with respective steroid concentrations and 10% charcoal-stripped FCS (PAA Laboratories, Coelbe, Germany). Twenty-four hours after stimulation, firefly and Renilla luciferase activities were measured using the Dual-Glo Luciferase Assay System (Promega) in a DTX 880 Multimode Detector (Beckman Coulter, Krefeld, Germany).

[2] = target: T2, porcine GR Ala610 (wild-type) (Sus scrofa, UniProt Q9N1U3, V610A); test: Transactivation assay (MMTV-luciferase reporter) in Cos-7 cells, wild-type Ala610 GR; type: cell-based; details: for EC50: Cos-7 cells
T2 construct: expressed in transfected cells; host or cells: Cos-7
T2 sequence (Q9N1U3 1-782 V610A): T1 sequence (Q9N1U3 1-782) with V610A
Protocol: Porcine GR expression plasmids (pCMV-GRA610 or pCMV-GRV610) harboring the SNP NR3C1 c.1829C>T (causing the Ala610Val substitution) were used for a transactivation assay in Cos-7 cells as previously described. In brief, monkey kidney Cos-7 cells were seeded in 96-well plates at a density of 2.5×10^4 cells/well in DMEM (Invitrogen, Karlsruhe, Germany) with 10% FCS. Twenty-four hours after seeding, cells were co-transfected with 200 ng of expression vector, 100 ng of pGL4.36 reporter (Promega, Mannheim, Germany) and 2 ng of pRL-SV40 plasmid (Promega) according to the Lipofectamine 2000 protocol (Invitrogen). The reporter plasmid pGL4.36 expresses firefly luciferase under control of the glucocorticoid-inducible MMTV (Murine Mammary Tumor Virus Long Terminal repeat) promoter while the pRL-SV40 vector constitutively expresses the Renilla luciferase and was used to normalize for transfection efficiency. […] Therefore, cell media was replaced by DMEM supplemented with respective steroid concentrations and 10% charcoal-stripped FCS (PAA Laboratories, Coelbe, Germany). Twenty-four hours after stimulation, firefly and Renilla luciferase activities were measured using the Dual-Glo Luciferase Assay System (Promega) in a DTX 880 Multimode Detector (Beckman Coulter, Krefeld, Germany).
Transcript abundance was corrected for the copy number of expression plasmid.
For all steroids except testosterone, two separate experiments were performed in triplicate. Data were adjusted for transfection efficiency and the resulting luciferase ratios were normalized to cells that were treated with ethanol only. Fold-changes of transcriptional activity were compared using a generalized mixed linear model including fixed effects of genotype, hormone concentration, and the interaction of the two. Data were analyzed using SAS V9.3 software (SAS Institute, Cary, NC, USA). Least-square means were compared at each concentration and p-values were adjusted by Dunnett’s post-hoc test. Fold-change values were further adjusted to maximum relative luciferase induction and dose-response curves, EC50, and significance of EC50 differences were estimated using dose-response equation of GraphPad Prism 5 (GraphPad Software Inc, San Diego, CA).

Val610 GR = Val610 GR (Sus scrofa, UniProt Q9N1U3); test: cell-based
Protocol: (§1) A whole-cell GR binding assay was adapted from the protocol previously described for peripheral blood mononuclear cells (PBMC). Cos-7 cells were seeded in 10-cm dishes and T75 flasks at a density of 1.75x10^5 cells/mL. After 24 hours in culture, cells were transfected with pCMV-GRA610 or pCMV-GRV610 using either 10 μg plasmid and 50 μL Fugene HD (Promega) for dishes or 15 μg plasmid and 75 μL Fugene HD for flasks. After another 24 hours in culture, media were replaced with serum-free DMEM to avoid contamination with steroids. One day later cells were pelleted, washed with PBS, and resuspended in DMEM supplemented with 10 mM HEPES buffer. […] After incubation, cells were washed with ice-cold PBS and centrifuged (10 min, 400 × g, 4°C) three times. Cell pellets were then resuspended in 100 μL PBS and mixed with 3 mL scintillation fluid (Rotiszint eco plus, Carl Roth GmbH, Karlsruhe, Germany). Radioactivity was measured in a spectral liquid scintillation counter (Tri-Carb 2900TR, Perkin Elmer Inc., USA) at 50% efficiency. The experiment was performed three times.
(§2) Saturation binding analysis included in nonlinear regression models implemented in GraphPad Prism 5 was used to fit binding curves to estimate the dissociation constant (KD, mean ± SE), maximum specific binding (Bmax, mean ± SE), and differences in these values dependent upon GR genotype.

AlaVal610 GR = AlaVal610 GR (Sus scrofa, UniProt Q9N1U3); details: pituitary cytosol
Protocol: (§3) Pituitary glands were quickly removed from pigs after electronarcotization and exsanguination, snap-frozen, and stored at -80°C. […] Nine pools per genotype, each containing two to three samples, were analyzed. In total 40 pituitaries were used. Pituitaries from homozygous carriers of the alternative variant were not available due to its low frequency.
(§4) GR binding analysis was performed on the pooled samples as previously described. Briefly, tissues were homogenized in ice-cold 10 mM Tris-HCl buffer, pH 7.5, containing 12.5 mM EDTA, 10 mM sodium molybdate, […] sucrose, and 5 mM dithiothreitol using an electric homogenizer (Ultra-Turrax, IKA, Staufen, Germany). The homogenate was centrifuged at 120,000 × g for 60 min at 0–4°C to isolate cytosol (supernatant fraction). […] Non-specific binding was determined with a parallel incubation containing 500-fold excess of RU 28362 (kindly donated by Roussel Uclaf, France), which binds selectively to GR. The separation of bound from free ligand was performed by precipitation with dextran-coated charcoal and the receptor-[^3H]-steroid complexes were counted in the Tri-Carb 2900TR scintillation counter at 50% efficiency. Protein concentrations for each pool were determined with bovine serum albumin as a standard. Binding values were corrected for the amount of protein input. Individual binding curves for each pool were fitted using GraphPad Prism 5 as described above. Resulting KD and Bmax values were compared between genotypes using a mixed linear model implemented in SAS. The model included the effect of genotype and experimental batch.

Ala610 GR [3] = target: T3, Ala610 GR (Sus scrofa, UniProt Q9N1U3, V610A); details: [3H]-dexamethasone, pituitary cytosol, homozygous wild-type
Protocol: as §3, §4

GFP-tagged Ala610 GR = GFP-tagged Ala610 GR (Sus scrofa, UniProt Q9N1U3, V610A); details: Cos-7 cells, after stimulation with dexamethasone
From the text: (§5) Green fluorescent protein (GFP)-tagged expression vectors were generated to track subcellular distribution and movement of both GR variants. In brief, the EGFP region was amplified from EGFP-N1 (Clontech, Heidelberg, Germany), using primers EGFP_N_fw and EGFP_N_rev (Table 1) and the proofreading PrimeSTAR HS DNA Polymerase (MoBiTec, Göttingen, Germany). The product was inserted into the pCMV-Tag1 vector (Agilent Technologies, Waldbronn, Germany) using NotI restriction sites. The resulting plasmid was further digested with BamHI and BglII restriction enzymes to insert BclI digested GR-alpha fragments. Therefore, GR-alpha fragments were amplified using cDNA of two individuals homozygous for the c.1829C>T SNP with primers GR_N-Flag_fw2 and GR_N-Flag_rev (Table 1). […]
(§6) Cos-7 cells were seeded in culture dishes (Greiner Bio-One, Frickenhausen, Germany) or 8-well chamber slides (VWR International, Hannover, Germany) for live cell imaging at a density of 1.6x10^5 cells/mL in DMEM with 10% FCS and transfected one day later with pCMV-GFP-GRA610 or pCMV-GFP-GRV610 using a Lipofectamine:DNA-ratio of 3:1. […] Before visualization by microscopy, media were replaced with phenol red-free DMEM supplemented with 5% charcoal stripped FCS, and the dish or slide to be analyzed was placed in a microscope incubator at 37°C and 5% CO2.

GFP-tagged Val610 GR = GFP-tagged Val610 GR (Sus scrofa, UniProt Q9N1U3); details: Cos-7 cells, after stimulation with dexamethasone
From the text: as §5, §6

Ala610 GR [4] = target: T3, Ala610 GR; details: [3H]-dexamethasone, whole Cos-7 cells, mean ± SE
Protocol: as §1, §2

[5] = wide concentration range 0.01 nM to 10 μM, 24 h stimulation

T3 sequence (Q9N1U3 whole entry V610A): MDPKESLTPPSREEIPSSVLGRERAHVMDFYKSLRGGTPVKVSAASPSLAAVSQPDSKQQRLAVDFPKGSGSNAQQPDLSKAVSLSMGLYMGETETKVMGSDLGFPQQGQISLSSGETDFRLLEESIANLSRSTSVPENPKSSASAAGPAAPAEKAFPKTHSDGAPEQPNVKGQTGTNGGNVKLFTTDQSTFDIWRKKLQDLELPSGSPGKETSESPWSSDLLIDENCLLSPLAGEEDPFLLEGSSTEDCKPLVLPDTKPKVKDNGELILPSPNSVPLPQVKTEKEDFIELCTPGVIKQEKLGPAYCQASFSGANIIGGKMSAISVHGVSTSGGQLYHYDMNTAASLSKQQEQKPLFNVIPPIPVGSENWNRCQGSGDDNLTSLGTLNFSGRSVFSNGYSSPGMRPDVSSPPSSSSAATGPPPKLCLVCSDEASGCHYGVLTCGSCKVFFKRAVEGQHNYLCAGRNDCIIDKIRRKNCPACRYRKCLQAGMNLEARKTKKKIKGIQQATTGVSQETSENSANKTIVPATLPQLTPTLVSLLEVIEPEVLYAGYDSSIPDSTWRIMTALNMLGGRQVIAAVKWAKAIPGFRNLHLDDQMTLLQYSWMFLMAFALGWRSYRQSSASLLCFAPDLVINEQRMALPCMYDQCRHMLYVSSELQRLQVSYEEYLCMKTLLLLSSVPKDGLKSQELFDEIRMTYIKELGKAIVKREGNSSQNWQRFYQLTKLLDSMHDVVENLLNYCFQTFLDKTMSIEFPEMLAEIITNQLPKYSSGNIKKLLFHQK
Chain of GFP-tagged Ala610 GR (Q9N1U3 whole entry V610A, the tested form may be a part): as the sequence (Q9N1U3 whole entry V610A) above

C[C@]12CCC(=O)C=C1CC[C@@H]1[C@@H]2[C@@H](O)C[C@]2(C=O)[C@@H](C(=O)CO)CC[C@@H]12 [aldosterone]
EC50 [1]: 50.6 nM | EC50 [2, 5]: 161 nM

C[C@]12CCC(=O)C=C1CC[C@@H]1[C@@H]2[C@@H](O)C[C@@]2(C)[C@H]1CC[C@]2(O)C(=O)CO [cortisol]
EC50 [1]: 36.5 nM | EC50 ([1]; EC50 of transactivation, Val610 GR, Cos-7 cells, narrow concentration range): 22.9 nM | EC50 ([2]; narrow concentration range): 37.2 nM | EC50 [2, 5]: 44.7 nM

C[C@@H]1C[C@H]2[C@@H]3CCC4=CC(=O)C=C[C@]4(C)[C@@]3(F)[C@@H](O)C[C@]2(C)[C@@]1(O)C(=O)CO [dexamethasone]
Kd (Val610 GR): 6.08 nM | Bmax (maximum specific binding) (Val610 GR; [3H]-dexamethasone, whole Cos-7 cells, mean ± SE): 1204 ± 118.1 fmol/mL | Kd (AlaVal610 GR; [3H]-dexamethasone 0.2 to 24 nM, heterozygous carriers): 0.529 ± 0.068 nM | Bmax (AlaVal610 GR; [3H]-dexamethasone, heterozygous carriers): 63.4 ± 5.0 fmol/mg protein | increased affinity of heterozygous carriers compared to wild-type controls (AlaVal610 GR): 1.7 fold | Bmax (Ala610 GR [3]): 62.2 ± 5.9 fmol/mg protein | time to full translocation into the nucleus (GFP-tagged Ala610 GR): ≤ 15 min | time to full translocation into the nucleus (GFP-tagged Val610 GR): ≤ 15 min | Bmax (maximum specific binding) (Ala610 GR [4]): 1479 ± 79.7 fmol/mL

C[C@]12CC[C@H]3[C@@H](CCC4=CC(=O)CC[C@@]43C)[C@@H]1CC[C@@H]2O [testosterone]
activation of the MMTV-driven luciferase reporter ([1]; Val610 GR, data not shown): unable to activate; also recorded: remained insensitive | activation of the MMTV-driven luciferase reporter ([2]; data not shown): unable to activate
